Test [1] has as its target T1, mGAT1 (Mus musculus, UniProt P31648).
T1 construct: expressed in transfected cells; host or cells: HEK293
Put plainly: MS Binding Assay with NO711 as native MS marker. The settings on record: in presence of 100 μM compound; read-out: remaining specific NO711 binding (mGAT1). A digest of the protocol:
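Competitive MS binding using membranes from HEK293 cells stably expressing mGAT1, with 10 nM unlabeled NO711 as marker and compounds at 7 concentrations. Nonspecific binding defined with 100 mM GABA. Bound NO711 eluted after filtration and quantified by LC-ESI-MS/MS against [2H10]NO711; Ki derived.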

Test [2] addresses T1, mGAT1. Put plainly: [^3H]GABA uptake assay, HEK293 cells expressing mGAT1. The format is cell-based. The following applies: for remaining activity at 100 µM: HEK293, in presence of 100 μM compound. The gist of the method:
(§1)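 HEK293 cells expressing mouse GATs preincubated 25 min at 37 °C with compound in Krebs buffer pH 7.2, then [3H]GABA added: 8 nM plus 32 nM unlabeled for 4 min (mGAT1/3/4), 20 nM plus 20 nM for 10 min (mGAT2). Filtration, scintillation counting; nonspecific uptake with 10 mM (mGAT1/3/4) or 100 mM GABA (mGAT2); pIC50.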

Another test concerns the target T2, mGAT2 (Mus musculus, UniProt P31651).
T2 construct: expressed in transfected cells; host or cells: HEK293
T2 sequence (P31651 1-614): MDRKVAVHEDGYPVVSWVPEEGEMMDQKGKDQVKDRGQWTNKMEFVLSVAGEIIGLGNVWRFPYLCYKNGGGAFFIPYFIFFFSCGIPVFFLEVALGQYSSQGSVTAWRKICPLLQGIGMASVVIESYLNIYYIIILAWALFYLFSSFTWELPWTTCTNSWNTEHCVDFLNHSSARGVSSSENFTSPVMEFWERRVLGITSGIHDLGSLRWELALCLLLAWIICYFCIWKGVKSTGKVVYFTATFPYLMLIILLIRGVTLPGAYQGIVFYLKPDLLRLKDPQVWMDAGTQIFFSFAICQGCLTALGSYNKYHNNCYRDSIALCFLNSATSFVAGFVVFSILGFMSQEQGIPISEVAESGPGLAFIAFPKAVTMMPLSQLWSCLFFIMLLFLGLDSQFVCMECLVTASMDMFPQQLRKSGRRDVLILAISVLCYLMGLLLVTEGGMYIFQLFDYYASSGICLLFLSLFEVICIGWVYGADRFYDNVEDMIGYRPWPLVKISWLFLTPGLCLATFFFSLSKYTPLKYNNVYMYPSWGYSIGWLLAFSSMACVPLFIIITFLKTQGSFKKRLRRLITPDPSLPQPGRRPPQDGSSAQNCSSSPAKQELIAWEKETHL
The test can be described thus: [^3H]GABA uptake assay, HEK293 cells expressing mGAT2. The settings on record: for remaining activity at 100 µM: HEK293, in presence of 100 μM compound; for IC50: [^3H]GABA uptake, pIC50±SEM. The format is cell-based. The gist of the method: as §1

The target of another test is T3, mGAT3 (Mus musculus, UniProt P31649).
T3 construct: expressed in transfected cells; host or cells: HEK293
T3 sequence (P31649 1-602): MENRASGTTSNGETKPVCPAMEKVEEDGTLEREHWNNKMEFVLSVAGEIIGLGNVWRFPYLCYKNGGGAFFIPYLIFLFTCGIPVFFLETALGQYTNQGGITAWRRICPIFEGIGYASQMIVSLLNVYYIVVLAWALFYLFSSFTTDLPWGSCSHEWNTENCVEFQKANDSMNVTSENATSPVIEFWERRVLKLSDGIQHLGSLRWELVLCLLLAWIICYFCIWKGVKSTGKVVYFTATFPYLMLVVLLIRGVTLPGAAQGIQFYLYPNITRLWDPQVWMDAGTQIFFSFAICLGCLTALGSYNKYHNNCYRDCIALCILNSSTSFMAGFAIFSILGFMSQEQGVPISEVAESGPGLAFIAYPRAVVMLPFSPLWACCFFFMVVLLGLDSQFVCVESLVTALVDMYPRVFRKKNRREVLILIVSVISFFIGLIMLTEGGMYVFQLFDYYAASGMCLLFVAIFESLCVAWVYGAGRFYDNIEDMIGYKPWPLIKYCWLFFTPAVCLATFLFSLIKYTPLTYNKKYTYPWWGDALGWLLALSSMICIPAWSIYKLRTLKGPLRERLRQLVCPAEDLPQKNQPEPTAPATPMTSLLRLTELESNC
Put plainly: [^3H]GABA uptake assay, HEK293 cells expressing mGAT3. It is filed as cell-based. The following applies: for remaining activity at 100 µM: HEK293, in presence of 100 μM compound; for IC50: [^3H]GABA uptake, pIC50±SEM. The gist of the method:
as §1

In another test the target is T4, mGAT4 (Mus musculus, UniProt P31650).
T4 construct: expressed in transfected cells; host or cells: HEK293
T4 sequence (P31650 1-627): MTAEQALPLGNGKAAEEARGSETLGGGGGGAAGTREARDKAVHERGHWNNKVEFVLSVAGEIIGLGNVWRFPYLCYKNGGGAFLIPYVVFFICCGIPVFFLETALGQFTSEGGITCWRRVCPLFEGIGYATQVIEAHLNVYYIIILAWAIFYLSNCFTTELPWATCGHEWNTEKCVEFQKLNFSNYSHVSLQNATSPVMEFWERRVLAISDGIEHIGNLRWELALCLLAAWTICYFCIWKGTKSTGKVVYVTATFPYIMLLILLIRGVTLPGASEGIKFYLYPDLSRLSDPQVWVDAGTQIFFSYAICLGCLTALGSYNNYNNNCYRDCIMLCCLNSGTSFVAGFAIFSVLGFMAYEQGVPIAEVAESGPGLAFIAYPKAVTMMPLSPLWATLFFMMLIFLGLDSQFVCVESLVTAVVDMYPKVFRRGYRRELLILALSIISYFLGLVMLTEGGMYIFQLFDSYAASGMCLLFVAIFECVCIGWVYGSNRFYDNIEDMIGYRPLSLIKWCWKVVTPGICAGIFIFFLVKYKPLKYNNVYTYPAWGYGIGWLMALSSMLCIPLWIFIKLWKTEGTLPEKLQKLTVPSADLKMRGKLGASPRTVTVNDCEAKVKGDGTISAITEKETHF
Put plainly: [^3H]GABA uptake assay, HEK293 cells expressing mGAT4. The format is cell-based. The settings on record: for remaining activity at 100 µM: HEK293, in presence of 100 μM compound; for IC50: [^3H]GABA uptake, pIC50±SEM. The gist of the method:
as §1

Results on 12 molecules are retold here after paper PMC7317212 (Chemmedchem, 2020).

As to `CCOC(=O)C1CCCN(CCOC(c2ccc(COC)cc2)(c2ccc(OC)cc2)c2ccc(OC)cc2)C1` (racemic) [12 f, rac‐ Ethyl 1‐(2‐{[4‐(methoxymethyl)phenyl]bis[4‐methoxyphenyl]‐methoxy}ethyl)piperidine‐3‐carboxylate], the remaining activity at 100 µM came to 55.3% at mGAT1 [1]; 66.6% at mGAT1 [2]; 58.8% on mGAT2; 56.9% on mGAT3; 50.8% at mGAT4.

`CCOC(=O)C1CCCN(CCOC(c2ccc(C#N)cc2)(c2ccc(OC)cc2)c2ccc(OC)cc2)C1` (racemic) [12 g, rac‐ Ethyl 1‐{2‐[(4‐cyanophenyl)bis(4‐methoxyphenyl)methoxy]ethyl}‐piperidine‐3‐carboxylate]: the remaining activity at 100 µM was 97.6% on mGAT1 [1]; 76.6% on mGAT1 [2]; 80.7% on mGAT2; 63.6% on mGAT3; 71.9% at mGAT4.

`CCOC(=O)C1CCCN(CCOC(c2ccc(COC)cc2)(c2ccc(COC)cc2)c2ccc(OC)cc2)C1` (racemic) [12 h, rac‐ Ethyl 1‐(2‐{bis[4‐(methoxymethyl)phenyl][4‐methoxyphenyl]‐methoxy}ethyl)piperidine‐3‐carboxylate]: the remaining activity at 100 µM amounted to 72.9% on mGAT1 [1], 64.9% at mGAT1 [2] and 50.6% at mGAT3. Besides, the IC50 on mGAT2 was 50.1 µM; at mGAT4, 89.1 µM.

As to `CCOC(=O)C1CCCN(CCOC(c2ccc(COC)cc2)(c2ccc(COC)cc2)c2ccc(COC)cc2)C1` (racemic) [12 i, rac‐ Ethyl 1‐(2‐{tris[4‐(methoxymethyl)phenyl]methoxy}ethyl)piperidine‐3‐carboxylate], the remaining activity at 100 µM on mGAT1 [1] is 87.5%; at mGAT1 [2] it was 70.3%; at mGAT2, 65%; on mGAT4, 51.4%. At mGAT3, this molecule showed a half-maximal inhibitory concentration (IC50) of 95.5 µM.

Consider `CCOC(=O)C1CCCN(CCOC(c2ccc(OC)cc2)(c2ccc(OC)cc2)c2ccc(C(N)=O)cc2)C1` (racemic) [12 j, rac‐ Ethyl 1‐{2‐[(4‐carbamoylphenyl)bis(4‐methoxyphenyl)methoxy]‐ethyl}piperidine‐3‐carboxylate], for which the remaining activity at 100 µM at mGAT1 [1] came to 89.3%; on mGAT1 [2] it was 57.8%; at mGAT2 it was 56.1%; at mGAT4, 60%. The molecule further had an IC50 at mGAT3 of 79.4 µM.

Turning to `CCOC(=O)C1CCCN(CCOC(C(=O)OC)(c2ccc(OC)cc2)c2ccc(OC)cc2)C1` (racemic) [12 k, rac‐ Ethyl 1‐{2‐[2‐methoxy‐1,1‐bis(4‐methoxyphenyl)‐2‐oxoethoxy]ethyl}‐piperidine‐3‐carboxylate], the remaining activity at 100 µM on mGAT1 [1] was found to be 90.8%; at mGAT1 [2] it was 89.1%; on mGAT2, 92.6%; on mGAT3 it was 64.1%; at mGAT4 it was 78.2%.

Take `CCOC(=O)C1CCCN(CCCC(O)(c2ccc(OC)cc2)c2ccc(OC)cc2)C1` (racemic) [12 l, rac ‐Ethyl 1‐[4‐hydroxy‐4,4‐bis(4‐methoxyphenyl)butyl]piperidine‐3‐carboxylate]: the remaining activity at 100 µM on mGAT1 [1] was found to be 104%; on mGAT1 [2] it was 79.3%; at mGAT2, 70.4%; at mGAT3, 65%; at mGAT4, 73.8%.

As to `CCOC(=O)C1CCCN(CCOC(c2ccc(CO)cc2)(c2ccc(OC)cc2)c2ccc(OC)cc2)C1` (racemic) [12 m, rac ‐Ethyl 1‐(2‐{[4‐(hydroxymethyl)phenyl]bis[4‐methoxyphenyl]methoxy}‐ethyl)piperidine‐3‐carboxylate], the figures for the remaining activity at 100 µM at mGAT1 [1], on mGAT1 [2] and at mGAT2 were 75.3%, 50.4% and 49.3%, respectively. Besides, the 50% inhibitory concentration (IC50) on mGAT3 is 35.5 µM; against mGAT4, 58.9 µM.

For `CCOC(=O)CCNCc1ccc(C(OCCN2CCCC(C(=O)OCC)C2)(c2ccc(OC)cc2)c2ccc(OC)cc2)cc1` (racemic) [12 o, rac ‐Ethyl 1‐{2‐[(4‐{[(3‐ethoxy‐3‐oxopropyl)amino]methyl}phenyl)bis(4‐methoxyphenyl)methoxy]ethyl}piperidine‐3‐carboxylate], the remaining activity at 100 µM at mGAT1 [1] is 72.4%. For the same molecule, the half-maximal inhibitory concentration (IC50) against mGAT1 [2] ([^3H]GABA uptake, pIC50±SEM) is 25.7 µM; against mGAT2, 19.1 µM; on mGAT3, 23.4 µM; against mGAT4 it was 21.9 µM.

For `CCOC(=O)C1CCCN(CCOC(c2ccc(CNC3(C(=O)OCC)CC3)cc2)(c2ccc(OC)cc2)c2ccc(OC)cc2)C1` (racemic) [12 p, rac‐ Ethyl 1‐(2‐{[4‐({[1‐(ethoxycarbonyl)cyclopropyl]amino}methyl)‐phenyl]bis[4‐methoxyphenyl]methoxy}ethyl)piperidine‐3‐carboxylate], the remaining activity at 100 µM on mGAT1 [1] is 95.8%; at mGAT1 [2], 75.5%; at mGAT2 it was 103%; on mGAT3, 58.8%; on mGAT4 it was 66.1%.

Regarding `CCOC(=O)C1CCCN(CCOC(c2ccc(CNC(C)(C)C(=O)OCC)cc2)(c2ccc(OC)cc2)c2ccc(OC)cc2)C1` (racemic) [12 q, rac‐ Ethyl 1‐{2‐[(4‐{[(1‐ethoxy‐2‐methyl‐1‐oxopropan‐2‐yl)amino]methyl}‐phenyl)bis(4‐methoxyphenyl)methoxy]ethyl}piperidine‐3‐carboxylate], the remaining activity at 100 µM was 90.9% at mGAT1 [1]; 66.9% at mGAT1 [2]; 67.4% at mGAT2; 49.3% at mGAT3; 57.4% on mGAT4.

`CCOC(=O)C1CCCN(CCOC(c2ccc(CNCCCC(=O)O)cc2)(c2ccc(OC)cc2)c2ccc(OC)cc2)C1` (racemic) [12 s, rac ‐4‐{[4‐({2‐[3‐(Ethoxycarbonyl)piperidin‐1‐yl]ethoxy}bis{4‐methoxy‐phenyl}methyl)benzyl]amino}butanoic acid]: the remaining activity at 100 µM on mGAT1 [1] came out at 84.9%; on mGAT1 [2], 52.4%; on mGAT2 it was 76.7%; at mGAT3 it was 59.3%; at mGAT4 it was 67.6%.
